Structures are written as SMILES. In brackets after ≈: the same amount, converted by molar mass. Square brackets hold non-standard residues; d marks the D form. Peptide text beside a SMILES is read from it. Ac6c = NC1(C(=O)O)CCCCC1

Test [1] relates to E. coli 70S ribosome. In words: Competitive fluorescence polarization assay against Cf-ARV-1502 (Ki). The class given is binding, E. coli BW25113. Conditions: 20 nmol/L Cf-ARV-1502, 0.5 µmol/L ribosome, 28 °C, 90 min + 90 min, Ki calculated from IC50; for Ki: read-out: Ki (nmol/L), competition with Cf-ARV-1502. How it is done:
(§1) E. coli 70S ribosomes were prepared using a previously described protocol that was slightly modified. Briefly, E. coli BW25113 was cultivated in Luria-Bertani (LB) medium and cells were harvested after reaching an optical density of ~4 at 600 nm by centrifugation (5000× g, 15 min, 4 °C, Rotor JLA 8.100, Avanti J-20 XP, Beckmann Coulter, Krefeld, Germany). The cell pellets were frozen and stored at −80 °C. Cells were resuspended in ribosome buffer (2 mL/g cells; 20 mmol/L HEPES-KOH, 6 mmol/L MgCl2, 30 mmol/L NH4Cl, 4 mmol/L 2-mercaptoethanol, pH 7.6). Lysozyme (0.25 g/L cell suspension) was added, and the mixture was incubated on ice for 30 min. Cells were disrupted using the bead mill homogenizer FastPrep-24™ 5G (40 s, 4 m/s, 6 cycles, MP Biomedicals Germany GmbH, Eschwege, Germany) and zirconia/silica beads (0.1 mm diameter). The lysate was centrifuged (1500× g, 5 min, 4 °C, Rotor S4180, Allegra 21R, Beckmann Coulter) and the supernatant was incubated with DNase (5 U/mL) on ice for 60 min.
Dissociation and inhibitory constants were determined in black 384-well-plates (Greiner Bio-One GmbH, Frickenhausen, Germany) blocked with 0.5% (w/v) casein in phosphate buffered saline (PBS, 8.8 mmol/L Na2HPO4×12 H2O, 1.2 mmol/L KH2PO4, 0.3 mol/L NaCl, pH 7.4) containing 0.05% (w/v) Tween® 20 (PBST) overnight at 4 °C and washed three times with PBST.
Ribosome solution was added (10 µmol/L) and the plate was incubated after centrifugation (2 min, 500× g, Rotor S2096, Allegra^TM 21R, Beckmann Coulter) at 28 °C for 90 min. Cf-labeled peptide was added (10 µL; final concentration of 20 nmol/L; final ribosome concentration of 0.5 µmol/L) and the plate was centrifuged and incubated again (90 min, 28 °C, dark). […] Kd and IC50 values were calculated by fitting the data with a variable slope parameter [y = min + (max − min)/(1 + (x/Kd) ^−Hill slope) ] using SigmaPlot 13 (Systat Software Inc., San Jose, CA, USA). The obtained IC50 values were used to calculate the Ki values.

Test [2] relates to E. coli 70S ribosome. In words: Competitive FP binding screening assay with Cf-ARV-1502 (relative FP). The arrangement: species or system E. coli BW25113. Conditions: for Ribosome Binding (%): competitive ribosome binding against Cf-ARV-1502 (relative FP; values match 1.2 µmol/L peptide), low value = strong competition. The procedure:
as §1, with “60 min. The cell debris was removed by two centrifugation steps (16,000× g, 30 min, 4 °C followed by 32,000× g, 60 min, 4 °C, Rotor JA 30.50 Ti, Avanti J-30I, Beckmann Coulter). The ribosome was pelleted by ultracentrifugation (165,000× g, 17 h, 4 °C, Rotor 70 Ti, Optima LE-80K, Beckmann Coulter), resuspended in ribosome buffer (0.1 mL/g pellet), and stored at −80 °C. The ribosome concentration was determined by recording the absorbance of RNA at 260 nm (NanoPhotometer NP80, Implen GmbH, München, Germany) assuming that 1 AU corresponds to a ribosome concentration of 28 nmol/L. The molecular weight of the E. coli 70S ribosome was assumed to be 2.3 MDa.” for “60 min.”
E. coli 70S ribosomes and Cf-ARV-1502 were incubated with four different concentrations of unlabeled peptides chosen based on the IC50 curves of reference peptide ARV-1502. Each peptide was diluted in ribosome buffer to obtain a concentration of 4.8 µmol/L and transferred to a 384-well-plate. Peptides were then twofold serially diluted in four steps from 4.8 to 0.6 µmol/L (20 µL). The ribosome extract was diluted in ribosome buffer to reach a concentration of 2 µmol/L and 10 µL were added to each well to obtain a final ribosome concentration of 0.5 µmol/L. Plates were centrifuged (2 min, 500× g, Rotor S2096, Allegra^TM 21R, Beckmann Coulter) and incubated at 28 °C for 90 min. Cf-labeled ARV-1502 was added (10 µL; final concentration of 20 nmol/L) and the plates were again centrifuged and incubated (28 °C, 90 min). After incubation, fluorescence polarization was recorded on a […]^TM microplate reader (λex = 485 nm, λem = 535 nm).
On each plate 12 minimum (30 µL ribosome buffer and 10 µL Cf-ARV-1502) and 12 maximum (20 µL ribosome buffer, 10 µL ribosome solution and 10 µL Cf-ARV-1502) control samples were added. Fluorescence polarization of screening samples was normalized to the fluorescence polarization of these control samples. All screening samples were measured in triplicates and the whole experiment was repeated once on another day.

The next test relates to E. coli BW25113. In words: MIC, liquid broth micro dilution, wild type. The class given is cell-based, Escherichia coli. To be noted: for MIC (µg/mL), Table 3: BW25113, 4 h; for Minimal Inhibitory Concentration, 25% MHB2, wt / Minimal Inhibitory Concentration, 33% TSB, wt: BW25113, 20 h. The procedure: (§2) MIC values were determined using a liquid broth micro dilution assay in sterile 96-well plates (polystyrene F-bottom, Greiner Bio-One GmbH) and a total volume of 100 μL per well. Aqueous peptide solutions (10 g/L) were serially twofold diluted in 25% Mueller-Hinton broth 2 (25% MBH2) or 33% tryptic soy broth (33% TSB) starting at a peptide concentration of 128 mg/L (50 μL/well). Overnight cultures of bacteria grown in 25% MHB2 (or 33% TSB) were diluted 30-fold in 25% MHB2 (or 33% TSB). After an incubation period of 4 h (37 °C, 200 rpm), cells were diluted to 1.5 × 10^7 cfu/mL, based on a McFarland test, and 50 μL were added to each well (final concentration of 7.5 × 10^6 […]). The plates were incubated (37 °C, 20 h) and the optical density was recorded at 595 nm using a microplate reader ([…]^TM, Beckmann Coulter). The MIC was defined as the lowest peptide concentration preventing visible bacterial growth.

The subject of test [3] is E. coli BW25113 ∆sbmA ∆mdtM. Type of test: cell-based, Escherichia coli. The procedure:
as §2

For a further test, the system named is E. coli BW25113 ∆sbmA. The class given is cell-based, Escherichia coli. How it is done:
as §2

In test [4] the test system is E. coli 70S ribosome. Briefly: Cell-free GFP expression assay (in vitro translation). The class given is biochemical. Conditions: for In Vitro Translation (%): GFP expression remaining relative to control, concentration not given (higher concentration 50 µmol/L). The source says: Possible effects of ARV-1502 and its substituted analogs on the in vitro translation of the green fluorescent protein (GFP) were probed using the NEB PureExpress Delta RF123 Kit (New England Biolabs, Ipswich, MA, USA). The sfGFP DNA template was amplified from pY71sfGFP plasmid by PCR introducing an UAA stop codon. Release factor 1 (RF1) was 50fold diluted in Pure System Buffer (PSB) containing magnesium acetate (1 mol/L), monopotassium phosphate (0.5 mol/L, pH 7.3), potassium glutamate (1 mol/L), NH4Cl (1 mol/L), calcium chloride (0.5 mol/L), spermidine (1 mol/L), putrescine (0.1 mol/L), and DTT (0.1 mol/L). Each reaction used 35 ng of sfGFP template. Peptides were added at a final concentration of 5 µmol/L and 50 µmol/L. The reaction was started by adding Kit solutions A (2 µL) and B (1.5 µL), diluted RF1 (0.5 µL), sfGFP template (0.25 µL or water as negative control), PSB (0.25 µL), and peptide (0.5 µL or water), mixed, transferred into a black 384-well plate (flat bottom, Greiner Bio-One GmbH), and incubated (37 °C, 2 h). The fluorescence was recorded every 10 min (λexc = 485 nm, λem = 535 nm) in a microplate reader (Gemini EM, Molecular Devices LLC, San Jose, CA, USA).

[5] abbreviates: 25% MHB2, 37 °C, 20 h, at least duplicates on two days, * once on two days, ** duplicate on one day.
The mark [6] stands for this setting: 33% TSB, 37 °C, 20 h, at least duplicates on two days, * once on two days, ** duplicate on one day.

For `O=C(N[C@H](CO)[C@H](O)c1ccc([N+](=O)[O-])cc1)C(Cl)Cl` [Chloramphenicol], the Ki with E. coli 70S ribosome [1] is 1700 ± 481 nmol/L.
Take `CC[C@H]1OC(=O)[C@H](C)[C@@H](O[C@H]2C[C@@](C)(OC)[C@@H](O)[C@H](C)O2)[C@H](C)[C@@H](O[C@@H]2O[C@H](C)C[C@H](N(C)C)[C@H]2O)[C@](C)(O)C[C@@H](C)C(=O)[C@H](C)[C@@H](O)[C@]1(C)O` [Erythromycin]: the Ki in the test with E. coli 70S ribosome [1] was 23 ± 1.6 nmol/L.
As for `CC(C)C[C@H](NC(=O)[C@H](Cc1ccc(O)cc1)NC(=O)[C@@H]1CCCN1C(=O)[C@H](CCCNC(=N)N)NC(=O)[C@@H]1CCCN1C(=O)[C@H](CC(=O)O)NC(=O)[C@H](CO)NC(=O)[C@@H]1CCCN1C(=O)[C@H](CCCNC(=N)N)NC(=O)C1(N)CCCCC1)C(=O)N1CCC[C@H]1C(=O)N[C@@H](CCCNC(=N)N)C(=O)N1CCC[C@H]1C(=O)N[C@@H](CCCNC(=N)N)C(=O)N1CCC[C@H]1C(=O)N1CCC[C@H]1C(=O)N[C@@H](CCCNC(=N)N)C(=O)N1CCC[C@H]1C(=O)N[C@H](C(=O)N[C@@H](CCCNC(=N)N)C(N)=O)C(C)C` [Peptide 50] (H-[Ac6c]RPSDPRPYLPRPRPPRPVR-NH2), the “Inhibition of Cf-ARV-1502 binding to the 70S ribosome (in words)” value with E. coli 70S ribosome [2] (Figure 3: peptide concentration 1.2 µmol/L) is “inhibited Cf-ARV-1502”. Besides, the “Ribosome Binding (%)” value in the test with E. coli 70S ribosome [2] came out at 67.9 ± 4.8%. Besides, in the test on E. coli BW25113, the “MIC (µg/mL), Table 3” value worked out at 128 µg/mL (≈ 52.6 µM); the “Minimal Inhibitory Concentration, 25% MHB2, wt” value was 128 µg/mL; the “Minimal Inhibitory Concentration, 33% TSB, wt” value stood at 64 µg/mL. Moreover, in the test with E. coli BW25113 (medium not given), the “MIC / activity against E. coli” value is “low activity against E. coli”. In test [3] (setting [5]), the “Minimal Inhibitory Concentration, 25% MHB2, ∆sbmA ∆mdtM” value is on record as more than 128 µg/mL. Also, the “Minimal Inhibitory Concentration, 33% TSB, ∆sbmA ∆mdtM” value in test [3] (setting [6]) is given as more than 128 µg/mL. Besides, the “Minimal Inhibitory Concentration, 25% MHB2, ∆sbmA” value in the test with E. coli BW25113 ∆sbmA (setting [5]) is on record as more than 128 µg/mL. In addition, the “Minimal Inhibitory Concentration, 33% TSB, ∆sbmA” value with E. coli BW25113 ∆sbmA (setting [6]) is given as more than 128 µg/mL. Besides, the “In Vitro Translation (%)” value in the test on E. coli 70S ribosome [4] came out at 113.7 ± 9.1%.
Take `CC(C)C[C@H](NC(=O)[C@H](Cc1ccc(O)cc1)NC(=O)[C@@H]1CCCN1C(=O)[C@H](CCCNC(=N)N)NC(=O)[C@@H]1CCCN1C(=O)[C@H](Cc1ccccc1)NC(=O)[C@H](Cc1ccccc1)NC(=O)[C@@H]1CCCN1C(=O)[C@H](CCCNC(=N)N)NC(=O)C1(N)CCCCC1)C(=O)N1CCC[C@H]1C(=O)N[C@@H](CC(C)C)C(=O)N1CCC[C@H]1C(=O)N[C@@H](CCCNC(=N)N)C(=O)N1CCC[C@H]1C(=O)N1CCC[C@H]1C(=O)N[C@@H](CCCNC(=N)N)C(=O)N1CCC[C@H]1C(=O)N[C@H](C(=O)N[C@@H](CCCNC(=N)N)C(N)=O)C(C)C` [Peptide 102] (H-[Ac6c]RPFFPRPYLPLPRPPRPVR-NH2; N-terminus and C-terminus assumed): the “Ribosome Binding (%)” value in the test on E. coli 70S ribosome [2] came out at 76.5 ± 5.6%. In the test on E. coli BW25113, the “MIC (µg/mL), Table 3” value fell in the range of 32 to 64 µg/mL; the “Minimal Inhibitory Concentration, 25% MHB2, wt” value lay in the range of 32 to 64 µg/mL; the “Minimal Inhibitory Concentration, 33% TSB, wt” value came to 64 µg/mL. In addition, in test [3] (∆sbmA ∆mdtM compared with ∆sbmA), the “Effect of the additional mdtM knockout on antibacterial activity” value was “no effect”. Besides, in the test with E. coli BW25113 ∆sbmA (∆sbmA compared with wild-type strain), the “Effect of deletion of SbmA on antibacterial activity” value is “no effect”. In addition, the “In Vitro Translation (%)” value in the test with E. coli 70S ribosome [4] was determined as 78.9 ± 3.5%. In addition, the “Reduction of GFP expression, 50 µmol/L peptide” value in the test on E. coli 70S ribosome [4] (cell-free expression, peptide-to-ribosome ratio of 25, GFP fluorescence, 37 °C) is listed as ~ 25%.
Turning to `[H]/N=C(/N)N[C@H]1[C@H](O)[C@@H](O)[C@H](O[C@@H]2O[C@@H](C)[C@](O)(C=O)[C@H]2O[C@@H]2O[C@@H](CO)[C@H](O)[C@@H](O)[C@@H]2NC)[C@@H](N/C(N)=N\[H])[C@@H]1O` [Streptomycin], the “Ki (nmol/L), competition with Cf-ARV-1502” value with E. coli 70S ribosome [1] is given as “no fit”; in the test with E. coli 70S ribosome [1] (listed as streptomycin) it was “did not affect the binding of Cf-ARV-1502”.
